In PubChem BioAssay (NCI):
Values joined by “and” are separate entries in the source; they are usually repeats but may differ in a detail not shown here. Equal entries are not always repeated.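 Briefly, cells in 96-well plates were exposed to five compound concentrations for 48 h, and endpoints were estimated by linear interpolation. At the GI50, growth is halved. At the TGI there is no net growth.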

Experiments:
Test in all cases: inhibition of tumour cell growth, NCI panel, 48 h
LOX IMVI melanoma = system: LOX IMVI melanoma
MOLT-4 leukemia = system: MOLT-4 leukemia
HCC-2998 colon = system: HCC-2998 colon
CCRF-CEM leukemia = system: CCRF-CEM leukemia
UACC-257 melanoma = system: UACC-257 melanoma
HCT-116 colon = system: HCT-116 colon
OVCAR-4 ovarian = system: OVCAR-4 ovarian
SR leukemia = system: SR leukemia
KM12 colon = system: KM12 colon
EKVX NSCLC = system: EKVX NSCLC

Row | Structure (SMILES) | TGI (LOX IMVI melanoma) [µM] | TGI (MOLT-4 leukemia) [µM] | TGI (HCC-2998 colon) [µM] | TGI (CCRF-CEM leukemia) [µM] | TGI (UACC-257 melanoma) [µM] | TGI (HCT-116 colon) [µM] | TGI (OVCAR-4 ovarian) [µM] | TGI (SR leukemia) [µM] | TGI (KM12 colon) [µM] | TGI (EKVX NSCLC) [µM] | GI50 (LOX IMVI melanoma) [µM] | GI50 (EKVX NSCLC) [µM] | GI50 (MOLT-4 leukemia) [µM] | GI50 (HCC-2998 colon) [µM] | GI50 (CCRF-CEM leukemia) | GI50 (UACC-257 melanoma) [µM] | GI50 (HCT-116 colon) [µM] | GI50 (OVCAR-4 ovarian) [µM] | GI50 (KM12 colon) [µM] | GI50 (SR leukemia) [µM]
1 | COC(=O)OCC1OC(N2C(=O)NC(=O)C(I)C2N=[N+]=[N-])CC1OC(=O)OC (stereo not drawn) | > 100 | > 100 | > 100 | > 100 | > 100 | > 100 | > 100 | > 100 | > 100 |  |  |  |  |  |  |  |  |  |  | 
2 | O=c1/c(=C/c2cccc3ccccc23)sc2nc3ccccc3n12 | > 100 |  | > 100 |  | > 100 | > 100 | > 100 |  | > 100 | > 100 |  |  |  |  |  |  |  |  |  | 
3 | C=CC1CC12C(=O)C1OC2(C)C2C(=O)c3ccccc3C(=O)C12 (stereo not drawn) | 68.7 | 11.1 | > 100 | > 93.9 | > 81.7 | > 100 | > 100 |  | > 80.8 | > 100 | 12.7 | > 100 | 1.54 | > 100 | 39.2 µM | > 45.9 | > 100 | 31.5 | > 45.3 | 
4 | [Cu+2].[Cu+2].[O-]c1ccccc1C=Nc1ccccc1[O-].[O-]c1ccccc1C=Nc1ccccc1[O-] | 17.5 | 9.97 | 22.4 | 21.3 | 22.3 | 6.55 | 8.23 |  | 27 | 25.9 | 4.12 | 11.8 | 2.99 | 10.3 | 3.33 µM | 10.4 | 2.47 | 2.6 | 10 | 
5 | O=CC1=CCCC2(C1)OCCO2 | > 100 |  | > 100 | > 100 | > 100 | > 100 | > 100 |  | > 100 | > 100 |  |  |  |  |  |  |  |  |  | 
6 | CCCCN(CC)C(=O)C(=O)C1C(=O)Nc2ccccc2S1=O (stereo not drawn) | > 100 | > 100 | > 100 | > 100 | > 100 | > 100 | > 100 |  | > 100 | > 100 |  |  |  |  |  |  |  |  |  | 
7 | COc1ccc(-c2nc(-c3nc4ccc(F)cc4[nH]3)cc3c2[nH]c2ccccc23)cc1 | 5.31 | 6.14 | 26.2 | 25.6 | 4.8 | 8.25 | > 100 | > 100 | 12.2 |  | 2.22 |  | 1.56 | 3.71 | 2.29 µM | 2.01 | 2.69 | 5.1 | 2.78 | 3.34
8 | CC(=O)[CH-]C(=O)c1ccccc1.CC(=O)[CH-]C(=O)c1ccccc1.[Nd+3].[OH-].[OH3+] | > 100 | > 100 | > 100 | > 100 | > 100 | > 100 | > 100 |  | > 100 |  | > 100 |  | > 100 | > 100 | > 100 µM | > 100 | > 100 | > 100 | > 100 | 
9 | O=C(NC1CCCCC1)c1c(O)[nH]c(=S)[nH]c1=O | > 100 | > 100 |  | > 100 | > 100 | > 100 | > 100 | > 100 | > 100 |  |  |  |  |  |  |  |  |  |  | 
10 | CC(NC(=O)c1ccccc1)C(=O)N(Cc1ccccc1)Cc1ccccc1 (stereo not drawn) | 47.7 | 35.6 | > 100 | 47.1 | > 100 | 66 | 95.3 | 64.6 | 58 |  |  |  |  |  |  |  |  |  |  | 
11 | O=C1CCC2(c3ccc(F)cc3)Nc3ccccc3N12 (stereo not drawn) | > 100 | > 100 | > 100 | > 100 | > 100 |  | > 100 |  | > 100 | > 100 |  |  |  |  |  |  |  |  |  | 
12 | CCC(=O)Sc1ccccc1C(=O)Nc1ccc(Cl)cc1 | 24.4 | 92.6 | 47 | > 100 | > 100 | 13.1 | > 100 |  | 36.8 | 75.2 | 5.91 | 7.16 | 4.67 | 18.5 | 4.22 µM | 31.7 | 3.58 | 13.1 | 6.69 | 
13 | COC1=CC(c2ccc[nH]2)=N/C1=C\c1[nH]c(C)c(C(=O)CCC(=O)Oc2ccc3c(c2)CCC2C3CC[C@]3(C)C(=O)CC[C@@H]23)c1C (stereo partly drawn) | 3.35 | > 100 | > 96.1 | > 100 | > 100 | > 100 | > 100 | > 100 | > 100 |  | 0.998 |  | 2.71 | 16.8 | 0.527 µM | 97.6 | 0.773 | 13.1 | 5.6 | 0.634
14 | COc1ccc(/C=C2/CN(C(=O)c3ccccc3F)C/C(=C\c3ccc(OC)cc3)C2=O)cc1 | 3.24 | 49.5 | 3.48 | > 100 | 13.3 | 1.39 | > 100 | 6.33 | 3.59 |  | 1.66 |  | 3.79 | 1.91 | 2.76 µM | 3.24 | 0.392 | 6.02 | 1.91 | 0.884
15 | COCCNCC(O)Cn1c2ccc(Cl)cc2c2cc(Cl)ccc21 (stereo not drawn) |  | 4.05 | 3.45 | 4.25 | 3.35 |  | 5.2 | 6.92 | 3.42 |  |  |  | 1.97 | 1.81 | 1.92 µM | 1.68 |  | 2.01 | 1.9 | 2.98
16 | O=C1c2ccn(CCCCN3CCOCC3)c2C(=O)c2c1c(O)c1ccccc1c2O | 23.1 |  |  | > 100 | 27.4 | 19.9 | > 100 | 33.6 | 18.8 |  | 3.58 |  |  |  | 2.75 µM | 8.43 | 7.03 | 30.3 | 5.21 | 4.55
17 | COc1ccc(CC(=O)c2cc(OC)c(OC)cc2C)cc1OC |  | > 100 | > 100 | > 100 | 75.8 |  | > 100 |  | > 100 | > 100 |  |  |  |  |  |  |  |  |  | 
18 | O=C(/C=C/c1ccc(OCCCCCCCCCCOc2ccc(/C=C/C(=O)c3ccc(Cl)cc3)cc2)cc1)c1ccc(Cl)cc1 | > 100 | > 100 | > 100 | > 100 | > 100 |  |  |  | > 100 | > 100 |  |  |  |  |  |  |  |  |  | 
19 | COc1cc(OC)cc(N2CCC(c3c(N)nc(N)nc3Cl)CC2)c1 | > 100 | > 100 | > 100 | > 100 | > 100 |  | > 100 |  | > 100 | > 100 |  |  |  |  |  |  |  |  |  | 
20 | Cc1ccc(S(=O)(=O)N(C)C)cc1[N+](=O)[O-] | > 100 |  | > 100 | > 100 | > 100 | > 100 |  |  | > 100 | > 100 | > 100 | > 100 |  | > 100 | > 100 µM | > 100 | > 100 |  | > 100 | 
21 | COc1ccc(C(CC(=O)c2ccccc2)C(C(=O)c2ccccc2)C(c2ccc(OC)cc2)C2C(=O)NC(=O)NC2=O)cc1 (stereo not drawn) | > 100 | > 100 | 28.5 | > 100 | 69.3 | 35.9 | > 100 |  | > 100 | > 100 | 9.38 | 12.5 | 60.7 | 6.83 | 12.9 µM | 14.1 | 14.2 | 26 | 19.1 | 
22 | O=C1OCC(c2ccc(O)c(O)c2)=C1c1cc(O)c(O)c(O)c1 | 36.8 | 27.8 |  | > 100 | > 100 | 35.5 | 70.1 |  | 55.6 | > 100 | 19.1 | 70.6 | 12.9 |  | 30.4 µM | 93.8 | 18.1 | 26.2 | 23.8 | 
23 | COc1ccc(CNc2cc(OC)cc(OC)c2)cc1 | > 100 | > 100 | > 100 | > 100 | > 100 | > 100 | > 100 |  | > 100 | > 100 |  |  |  |  | 78.7 µM and 28.6 µM |  |  |  |  | 
24 | CN(C)CCC1(C2=CCCC2)CC/C(=C\c2ccc3c(c2)OCO3)C1=O (stereo not drawn) |  | 31.4 | 29.6 | 41.4 | 29 | 26.9 | 27.1 |  | 31.8 | 29.3 |  |  |  |  |  |  |  |  |  | 
25 | c1ccc2c(c1)O[As](O[As]1Oc3ccccc3O1)O2 | 10.3 | 7.21 | 18.4 | 10.8 | 9.88 | 14.1 | 19.7 | 7.39 | 20.6 |  | 2.3 |  | 2.45 | 4.96 | 0.434 µM | 2.07 | 3.17 | 2.49 | 7.79 | 1.61
26 | N#C/C(=C\c1ccc(CP(=O)(O)O)cc1)C(N)=O | > 100 | > 100 | > 100 | > 100 | > 100 | > 100 | > 100 |  | > 100 | > 100 |  |  |  |  |  |  |  |  |  | 
27 | CC(C)C1CN1CC(O)Cn1ccnc1[N+](=O)[O-] (stereo not drawn) |  | > 100 | > 100 | > 100 | > 100 | > 100 | > 100 |  | > 100 | > 100 |  |  |  |  |  |  |  |  |  | 
